Reference: patent publication US7282347B2, “Method for extracting quantitative information relating to interactions between cellular components” (Fisher Bioimage APS, priority 2000, dated 2007)
Entries after “also recorded” stand apart in the source; their conditions may differ. Where two headings read alike, the source gives them in different places.

How the values were obtained:
[1] = test system: CHO cells stably expressing HSPDE4A4B-GFP; experiment: cellular cAMP content (kit RPA538) in CHO cells stably expressing HSPDE4A4B-GFP; assay type: cell-based, Chinese hamster; details: rolipram 0.03 μM to 3 μM, 16 to 18 hours
Experimental: (§1) After the incubation period, cAMP content is measured using a commercial kit from Amersham-Pharmacia Biotech, kit # RPA538, according to the manufacturers instructions.
(§2) The amount of cAMP/well was calculated using regression analysis from a cAMP standrad curve, as recommended by the manufacturers of the assay kit.
(§3) After the incubation period, cAMP content is measured using a commercial kit from Amersham-Pharnacia Biotech, kit # RPA538, according to the manufacturers instructions.
CHO cells stably expressing HSPDE4A4B-GFP (see Example 2), and untransfected CHO cells are seeded into individual wells of a 96-well microtiter plate at a density of 1.2×10^5 cells/well, and cultured for 16 to 18 hours in HAM F-12 medium with glutamax, 100 μg penicillin-streptomycin mixture ml^−1 and 10% FBS. […] After the treatment period, cAMP content is measured using a commercial kit from Amersham-Pharmacia Biotech, kit # RPA538, according to the manufacturers instructions.

[2] = test system: untransfected CHO cells; experiment: cellular cAMP content (kit RPA538) in untransfected CHO cells; assay type: cell-based, Chinese hamster
Experimental: as §1, §2, §3
CHO cells stably expressing HSPDE4A4B-GFP (see Example 2), and untransfected CHO cells are seeded into individual wells of a 96-well microtiter plate at a density of 1.2×10^5 cells/well, and cultured for 16 to 18 hours in HAM F-12 medium with glutamax, 100 μg penicillin-streptomycin mixture ml^−1 and 10% FBS. After 16 to 18 hours incubation, cells are treated for 60 minutes with various concentrations of forskolin. After the treatment period, cAMP content is measured using a commercial kit from Amersham-Pharmacia Biotech, kit # RPA538, according to the manufacturers instructions.

[3] = test system: PKAcat-GFP; experiment: forskolin induced PKAcat-GFP translocation quantified by extraction procedure, FLIPR; assay type: cell-based; details: Homo sapiens
Experimental: Upon increase in cellular cAMP (e.g. by stimulation of adenylate cyclase activity by forskolin) PKAcat dissociates from its regulatory subunits and spots “dissolves” into the cytosol. The total GFP intensity measured after removing cytosolic PKAcat-GFP through the extraction procedure is indicative of the level of non-activated, non-dissociated PKAcat.
In this example the extraction procedure is used to quantify a forskolin dose response in a PKAcat-GFP assay.
Cells are treated with forskolin in various conc. for 15 min. (remove spots). Cells are extracted (Formalin 0.2%/Triton-x 0.2%). Signal is read in FLIPR.
Dose response on the effect of forskolin to stimulate PKA translocation.

[4] = biological target: PDE4A4 (Homo sapiens, UniProt P27815); experiment: formation of dense aggregates (spots) of PDE4A4 in transfected CHO cells; details: read-out: EC50 for formation of dense PDE4A4 aggregates (spots) in the cytoplasm
Experimental: The amount of fluorescent spots and other accumulations of a transfected probe in a population of cells can be imaged and quantified in an automated fashion to yield a measure of mean number of spots per cell. For this purpose cells are cultured to near 80% to 90% confluence in coverglass chambers or plastic 96-well plates, given the relevant treatment and allowed to respond. At the end of the response period, cells are chemically fixed in 4% formaldehyde buffer (Lillies fixative buffer, pH7.4: Bie and Berntsen A/S, Denmark) for 30 minutes to 2 hours, and then washed three times in phosphate buffered saline (PBS, Life Technologies, Denmark). An alternative simultaneous fixation+permeabilisation method, useful to remove non-localised (i.e. mobile) GFP probe from the cytoplasm, involves a single fixation process incorporating 0.4% to 2% formaldehyde buffer (10% to 50% strength Lillies fixative) plus 0.2% to 1% Triton X-100. The actual concentrations used need to be optimised for the cell type being used; for CHO cells 2% formaldehyde+1% Triton X-100 gives excellent results. The combined fixative+detergent are applied to the cells for 10 to 20 minutes at room temperature. Cells are then washed three times with phosphate buffered saline. […] Fluorescence illumination comes from a 100 W HBO lamp. […]

[5] = biological target: T1, HSPDE4A4-SosA anchor probe and hGrb2-EGFP detectable probe (Homo sapiens, UniProt P27815+Q07890); experiment: redistribution trap: CHO cells co-transfected with HSPDE4A4-SosA anchor probe and hGrb2-EGFP detectable probe; assay type: cell-based; details: 10 μM RP73401 for 75 minutes in presence of 10 micromolar rolipram
T1 construct: expressed in transfected cells; host or cells: CHO
Source text: Sos is a guanine nucleotide exchange factor responsible for activation Ras-like GTPases, Grb2 an adaptor component responsible for recuiting Sos to the activated receptor. In this example the anchor probe is based on HSPDE4A4. CHO cells are stably co-transfected with anchor probe HSPDE4A4-SosA and “detectable” probe hGrb2-EGFP as described in Example 2 and Example 3. The anchor probe is selected for with zeocin, and the detectable probe with neomycin (G418). […] The transfected cells are a mixed non-clonal population.
The transfected cells are a mixed non-clonal population.

[6] = biological target: T2, Cys1 domain of PKCgamma (Cys1-EGFP) (Homo sapiens, UniProt P05129); experiment: redistribution of Cys1-EGFP to the plasma membrane in CHO cells; assay type: cell-based; details: 100 nM PMA, 5 minutes
T2 construct: the 90 N-terminal amino acids of human PKCgamma (the Cys1 domain); expressed in transfected cells; host or cells: CHO
Experimental: Time-lapse images of CHO cells expressing Cys1-EGFP, the fusion of EGFP to the C-terminal of the cys1 domain from human protein kinase C isoform gamma, before (a) and after 5 minutes treatment with 100 nM PMA.

[7] = biological target: T3, Cys1-hGrb2 anchor probe and EGFP-Sos-Cterm detectable probe (Homo sapiens, UniProt P05129+P62993); experiment: redistribution trap: CHO cells expressing Cys1-hGrb2 anchor probe and EGFP-Sos-Cterm detectable probe; assay type: cell-based; details: 100 nM PMA, 5 minutes
T3 construct: the 90 N-terminal amino acids of human PKCgamma (the Cys1 domain); expressed in transfected cells; host or cells: CHO
Experimental: (§4) This example describes the creation of another cell line suitable for screening compounds against the interaction between Grb2 and the C-terminal sequence of Sos (amino acids 1067 to 1332 of Sos). This is the same interaction pair described in Example 6, except that the anchor probe is based upon the Cys1 domain of protein kinase C isoform gamma, and therefore locates in unstimulated cells throughout the cytoplasm and nucleus. When these cells are treated with 100 nM PMA the anchor probe redistributes to the plasma membrane, and if an interaction occurs between anchor and detectable probes, the GFP fluorescence will also be seen to redistribute to the plasma membrane. […] Treatment with PMA is used to confirm that an interaction between anchor and detectable probes occurs in this system, since redistribution of fluorescence to the plasma membrane can only occur if interaction of the two probes has first taken place. This can be checked in CHO cells transfected with EGFP-Sos-Cterm alone, where PMA has no effect on the distribution of fluorescence.
(§5) CHO cells are stably co-transfected with the anchor probe Cys1-hGrb2 and the GFP-labelled detectable probe EGFP-Sos-Cterm as described in Example 2 and Example 6. […] The majority of cells in before PMA treatment have a rather general cytoplasmic and nuclear distribution of fluorescence. […]

[8] = biological target: T4, Cys1-hGrb2 anchor probe and EGFP-Sos-Cterm detectable probe (Homo sapiens, UniProt P62993); experiment: as above; assay type: cell-based; details: control cells with EGFP-Sos-Cterm alone, PMA
T4 construct: the 90 N-terminal amino acids of human PKCgamma (the Cys1 domain); expressed in transfected cells; host or cells: CHO
Experimental: as §4, §5

T1 sequence (P27815+Q07890 fused): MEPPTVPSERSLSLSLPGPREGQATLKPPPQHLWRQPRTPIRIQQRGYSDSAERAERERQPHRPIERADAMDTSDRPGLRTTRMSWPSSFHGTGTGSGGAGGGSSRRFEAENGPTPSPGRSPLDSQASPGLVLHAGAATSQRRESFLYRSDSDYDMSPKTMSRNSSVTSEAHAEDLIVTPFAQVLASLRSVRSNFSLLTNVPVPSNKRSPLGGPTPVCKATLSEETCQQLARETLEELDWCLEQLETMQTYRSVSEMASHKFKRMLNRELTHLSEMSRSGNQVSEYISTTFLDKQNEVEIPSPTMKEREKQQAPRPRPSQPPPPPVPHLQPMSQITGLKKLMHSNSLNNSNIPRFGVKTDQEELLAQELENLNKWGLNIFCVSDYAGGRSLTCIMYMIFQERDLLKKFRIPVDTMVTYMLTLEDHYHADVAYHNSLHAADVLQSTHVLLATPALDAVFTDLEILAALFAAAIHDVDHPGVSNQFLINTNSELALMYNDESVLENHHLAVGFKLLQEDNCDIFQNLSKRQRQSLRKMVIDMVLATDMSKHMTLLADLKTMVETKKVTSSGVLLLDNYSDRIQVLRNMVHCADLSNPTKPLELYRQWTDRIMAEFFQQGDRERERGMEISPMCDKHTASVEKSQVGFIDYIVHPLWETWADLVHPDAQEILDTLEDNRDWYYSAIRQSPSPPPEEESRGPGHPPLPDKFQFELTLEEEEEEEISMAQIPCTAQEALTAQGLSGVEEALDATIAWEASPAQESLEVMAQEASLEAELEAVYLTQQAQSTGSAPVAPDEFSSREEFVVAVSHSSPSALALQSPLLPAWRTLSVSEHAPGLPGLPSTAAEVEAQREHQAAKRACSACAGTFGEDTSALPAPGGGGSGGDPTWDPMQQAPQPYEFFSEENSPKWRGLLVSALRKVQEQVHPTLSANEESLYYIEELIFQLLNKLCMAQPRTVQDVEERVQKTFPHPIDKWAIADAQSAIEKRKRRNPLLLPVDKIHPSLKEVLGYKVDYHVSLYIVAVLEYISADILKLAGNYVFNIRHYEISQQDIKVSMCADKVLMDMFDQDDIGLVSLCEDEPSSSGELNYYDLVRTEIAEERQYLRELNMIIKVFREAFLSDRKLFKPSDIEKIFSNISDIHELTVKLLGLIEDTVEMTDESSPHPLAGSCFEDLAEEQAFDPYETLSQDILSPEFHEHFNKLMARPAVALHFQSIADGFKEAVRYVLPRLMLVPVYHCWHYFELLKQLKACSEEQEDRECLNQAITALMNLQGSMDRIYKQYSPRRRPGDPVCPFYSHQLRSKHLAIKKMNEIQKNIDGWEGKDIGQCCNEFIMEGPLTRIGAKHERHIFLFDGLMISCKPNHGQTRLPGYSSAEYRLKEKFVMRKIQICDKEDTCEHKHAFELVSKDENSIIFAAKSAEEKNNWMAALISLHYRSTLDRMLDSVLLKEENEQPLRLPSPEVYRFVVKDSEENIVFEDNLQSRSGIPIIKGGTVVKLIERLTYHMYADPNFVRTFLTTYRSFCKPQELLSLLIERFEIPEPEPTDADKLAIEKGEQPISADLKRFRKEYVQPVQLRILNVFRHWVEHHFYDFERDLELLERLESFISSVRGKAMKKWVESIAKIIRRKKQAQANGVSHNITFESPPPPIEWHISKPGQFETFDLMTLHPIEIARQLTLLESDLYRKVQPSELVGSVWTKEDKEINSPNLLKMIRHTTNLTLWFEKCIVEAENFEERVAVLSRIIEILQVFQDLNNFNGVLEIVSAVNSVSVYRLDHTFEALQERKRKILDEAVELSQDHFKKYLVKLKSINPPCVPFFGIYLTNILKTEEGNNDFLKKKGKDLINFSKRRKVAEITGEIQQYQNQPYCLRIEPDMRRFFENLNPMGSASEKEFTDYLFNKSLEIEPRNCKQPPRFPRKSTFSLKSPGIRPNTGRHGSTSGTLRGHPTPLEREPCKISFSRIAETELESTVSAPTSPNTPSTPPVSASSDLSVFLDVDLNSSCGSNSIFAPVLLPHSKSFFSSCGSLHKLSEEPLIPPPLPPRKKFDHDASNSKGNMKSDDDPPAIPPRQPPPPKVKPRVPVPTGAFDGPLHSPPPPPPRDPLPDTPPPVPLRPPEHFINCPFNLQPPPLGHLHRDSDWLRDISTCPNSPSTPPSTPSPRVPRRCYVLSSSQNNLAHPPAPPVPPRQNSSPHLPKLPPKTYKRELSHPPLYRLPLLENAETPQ
T1 sequence (P62993 whole entry partner): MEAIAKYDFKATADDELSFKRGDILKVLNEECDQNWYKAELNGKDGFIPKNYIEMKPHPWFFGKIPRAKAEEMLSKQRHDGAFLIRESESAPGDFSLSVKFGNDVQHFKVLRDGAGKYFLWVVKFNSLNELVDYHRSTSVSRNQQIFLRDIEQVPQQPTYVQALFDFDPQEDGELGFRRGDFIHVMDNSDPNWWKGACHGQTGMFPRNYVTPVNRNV
T4 sequence (P62993 whole entry, looked up, the tested form may be a part): as the sequence (P62993 whole entry partner) above
Sequence of PDE4A4 (P27815 whole entry): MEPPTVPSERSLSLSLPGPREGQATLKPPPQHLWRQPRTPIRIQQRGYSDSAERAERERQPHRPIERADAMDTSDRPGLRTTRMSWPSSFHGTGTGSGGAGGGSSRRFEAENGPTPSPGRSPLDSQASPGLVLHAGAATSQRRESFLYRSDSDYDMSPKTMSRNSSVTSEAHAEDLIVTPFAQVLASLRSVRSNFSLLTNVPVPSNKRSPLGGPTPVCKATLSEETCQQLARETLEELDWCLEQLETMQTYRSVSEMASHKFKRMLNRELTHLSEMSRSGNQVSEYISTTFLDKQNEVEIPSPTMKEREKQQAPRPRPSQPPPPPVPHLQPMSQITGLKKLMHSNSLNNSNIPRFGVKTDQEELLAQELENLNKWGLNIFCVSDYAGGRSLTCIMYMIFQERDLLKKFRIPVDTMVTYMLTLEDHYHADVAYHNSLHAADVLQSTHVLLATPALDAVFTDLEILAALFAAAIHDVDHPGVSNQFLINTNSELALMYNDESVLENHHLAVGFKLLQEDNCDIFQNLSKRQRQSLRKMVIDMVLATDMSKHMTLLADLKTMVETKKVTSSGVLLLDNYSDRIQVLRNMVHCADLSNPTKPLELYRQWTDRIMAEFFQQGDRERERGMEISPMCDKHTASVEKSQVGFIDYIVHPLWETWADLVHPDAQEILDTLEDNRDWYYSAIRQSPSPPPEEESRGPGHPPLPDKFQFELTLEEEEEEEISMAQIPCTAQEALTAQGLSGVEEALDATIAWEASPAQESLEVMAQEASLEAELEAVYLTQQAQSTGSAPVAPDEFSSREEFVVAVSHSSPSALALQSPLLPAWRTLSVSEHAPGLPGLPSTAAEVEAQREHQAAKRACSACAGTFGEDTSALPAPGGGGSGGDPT

## COc1ccc(C2CNC(=O)C2)cc1OC1CCCC1 (stereo not shown) [rolipram]
[1]
  cellular cAMP concentration, rolipram treatment: no appreciable increase
[2]; 10 μM rolipram, probably not significant
  cellular cAMP, rolipram 10 μM: slight rise
[2]; rolipram 0.03 μM to 3 μM, 16 to 18 hours
  cellular cAMP concentration, rolipram treatment: no appreciable increase

## C=C[C@@]1(C)CC(=O)[C@]2(O)[C@@]3(C)[C@@H](O)CCC(C)(C)[C@@H]3[C@H](O)[C@H](OC(C)=O)[C@@]2(C)O1 [forskolin]
[3]; 0.25 h, forskolin 15 min, extraction Formalin 0.2%/Triton-x 0.2%, FLIPR, read-out: ED50 of forskolin dose response in PKAcat-GFP assay
  EC50: ~3000 nM
[3]; FIG. 18 dose response, read-out: calculated EC50 for forskolin to stimulate PKA translocation
  EC50: 3280 nM

## O=c1c2cccnc2n(-c2cccc([N+](=O)[O-])c2)c(=O)n1Cc1ccncc1 [RS25344]
[4]
  EC50: 20 nM

## COc1ccc(C(=O)Nc2c(Cl)cncc2Cl)cc1OC1CCCC1 [RP73401, Piclamilast]
[5]
  effect on rolipram-induced GFP-bright spots: spots disappear; also recorded: dissolves rolipram-induced spots

## CCCCCCCCCCCCCC(=O)O[C@@H]1[C@@H](C)[C@@]2(O)[C@@H](C=C(CO)C[C@]3(O)C(=O)C(C)=C[C@@H]23)[C@@H]2C(C)(C)[C@]12OC(C)=O [PMA, phorbol-12-myristate-13-acetate]
[6]
  redistribution of Cys1-EGFP: redistributes from the cytoplasm and nucleus to the plasma membrane
[7]
  redistribution of EGFP-Sos-Cterm fluorescence: measurable shift in fluorescence to the plasma membrane
[8]
  distribution of fluorescence in CHO cells transfected with EGFP-Sos-Cterm alone: no effect
